The text below walks through data of article PMC9219006 (Plant Direct, 2022).

This test deals with ASAT1H (SqASAT1H; c39979_g2_i1). Description: LC-MS/MS product formation, Michaelis-Menten fit. To be noted: read-out: apparent Km, 30 °C, pH 6 (default), 20 min. It counts as biochemical, Solanum quitoense.

Where two headings read alike, the source gives them in different places.

Broadly, the Km is the substrate concentration at which the rate is half of its maximum. On to `O[C@H]1[C@H](O)[C@@H](O)[C@H](O)[C@@H](O)[C@H]1O` [myo-inositol], for which, for the setting “nC10-CoA saturating”, the Km was 4400 ± 1100 µM.

Turning to `CCCCCCCCCC(=O)SCCNC(=O)CCNC(=O)[C@H](O)C(C)(C)COP(=O)(O)OP(=O)(O)OC[C@H]1O[C@@H](n2cnc3c(N)ncnc32)[C@H](O)[C@@H]1OP(=O)(O)O` [nC10-CoA], the Km (myo-inositol saturating) came out at 9.5 ± 2.4 µM. Still for that read-out and setting: next, `CCCCCCCCCCCC(=O)SCCNC(=O)CCNC(=O)[C@H](O)C(C)(C)COP(=O)(O)OP(=O)(O)OC[C@H]1O[C@@H](n2cnc3c(N)ncnc32)[C@H](O)[C@@H]1OP(=O)(O)O` [nC12-CoA]: 16.6 ± 6.6 µM.
